Source: patent US20260069699A1, “Hybrid Curcumin Conjugates And Methods Of Use Thereof” (AUGUSTA UNIVERSITY RESEARCH INSTITUTE, INC., priority 2020, published 2026)
Each block holds one compound with its values, some of them ahead of it.

What was measured:
[1] = tested on: MDA-MB231 (MB231) cells; experiment: MTT cell proliferation assay, MB231 cells; format: cell-based, human
Description: (§1) We tested the antitumor potential of All the synthesized six DCA-curcumin hybrid conjugates (CMC 1-CMC 6) with two different human breast cancer cell lines [T47D, an ER-positive BC cell line and MDA-MB231 (MB231), a triple-receptor negative BC (TNBC) cell line] using the colorimetric MTT (3-(4,5-dimethylthiazol-2yl)-2,5-diphenyltetrazolium bromide) cell proliferation assay kit.
(§2) […] and MB231 cells (5×10^3) were seed in 96-well plates and left them in the cell culture incubator at 37° C. with 5% CO2 in DMEM and RPMI medium (100 μl), respectively. After 24 h, the medium was replaced with the CMC compounds at different concentrations (0, 1, 5, and 10 μM) for 72 h. After 72 h, 10 μl Reliablue reagent was added to each well and incubated for 2 h for the formation of purple formazan and then added 100 μl of detergent to dissociate the formazan precipitate and measured at 570 nm. Values are shown as mean±SEM of three experiments with 6 wells in each, a total of 18 repeats.

[2] = tested on: T47D cells; experiment: MTT cell proliferation assay, T47D cells; format: cell-based, human; conditions: 72 h
Description: as §1, §2

[3] = tested on: FVB/N mice; experiment: Adverse effects and toxicity in normal mice; format: in vivo, mouse; conditions: oral gavage 50 and 100 mg/kg body, 7 days
Description: Adverse effects and toxicity to the normal cells are the most challenging part of the anticancer drug development process. […] The body weight and any side effects of contraindication monitored during the period.
Control mice received PBS. After one weak of drug administration, mouse weight was measured every day for 7 days. We used 3 mice in each group. (A) Body weight changes in control mice (B and C) Body weight changes in CMC1 (50 and 100 mg/kg body). (D and E) Body weight changes in CMC1 (50 and 100 mg/kg body) Computational Studies: […]

[4] = tested on: MMTV-PyMT-Tg mice; experiment: Tumor growth in genetically engineered mouse (GEM) model of breast cancer; format: in vivo; conditions: 10 mg/kg body, three times a week by oral gavage for 7 weeks
Description: The antitumor potential of one of the most potential CMC compound, CMC2, in genetically engineered mouse (GEM) model of breast cancer, MMTV-PyMT-Tg mice was tested. The MMTV-PyMT-Tg mouse was mainly chosen because the tumor formation and progression in this mouse is characterized by four different stages (hyperplasia, adenoma/mammary intra-epithelial neoplasia, early and late carcinoma) and also mimics human breast cancer, the tumor develops first as ER-positive (ER^+) but ultimately becomes ER-negative BC (ER^− BC).
It was randomly assigned 6-week-old MMTV-PyMT-Tg mice into two groups (3 mice in each); one control and one CMC2 treated (10 mg/kg body, three times a week by oral gavage for 7 weeks). Tumor volume was measured twice a week and the volume was calculated using the formula V=L×W^2/2, where L represents the largest tumor diameter and W represents the smallest tumor diameter. After the experimental period, tumor tissues were collected, a picture was taken, and tumor weight was measured. Tissue sections were prepared from the tumor tissue and stained for Hematoxylin and Eosin (H & E) section and also stained for the Ki67 for cell proliferation. Tissue sections and H & E sections were prepared from the Augusta University Histology core facility.
Six-week-old MMTV-PyMT-Tg mice were treated with CMC2 (10 mg/kg body for 3× a week for 7 weeks. Control mice received PBS. Tumor volume was measured twice a week and calculated (A). After the experimental period, tumor size (B) and tumor weight (C) were also analyzed. Tissue sections were prepared and stained with H & E and Ki67 (D). Values are shown as mean±SD of three mice in each.

EC50 ([1]; 72 h): 942 nM
EC50 [2]: 1370 nM
Structure (SMILES): COc1cc(/C=C/C(=O)/C=C(O)/C=C/c2ccc(OC(=O)CCCNC(=O)C(Cl)Cl)c(OC)c2)ccc1OC(=O)CCCNC(=O)C(Cl)Cl [CMC 6]

EC50 ([1]; Homo sapiens, MDA-MB-231, 72 h): 424 nM
Structure (SMILES): COc1cc(/C=C/C(=O)/C=C(O)/C=C/c2ccc(OC(=O)C(Cl)Cl)c(OC)c2)ccc1OC(=O)C(Cl)Cl [CMC 1]
contraindication / side effects [3]: no contraindication
mouse growth (body weight) [3]: normal

EC50 ([1]; 72 h): 518 nM
EC50 [2]: 1600 nM
Structure (SMILES): COc1cc(/C=C/C(=O)/C=C(O)/C=C/c2ccc(OC(=O)[C@H](C)NC(=O)C(Cl)Cl)c(OC)c2)ccc1OC(=O)[C@H](C)NC(=O)C(Cl)Cl [CMC 3]

More lines, now with the values behind:

Structure (SMILES): COc1cc(/C=C/C(=O)/C=C(O)/C=C/c2ccc(OC(=O)CCNC(=O)C(Cl)Cl)c(OC)c2)ccc1OC(=O)CCNC(=O)C(Cl)Cl [CMC 4]
EC50 ([1]; 72 h): 1130 nM
EC50 [2]: 1260 nM

Structure (SMILES): COc1cc(/C=C/C(=O)/C=C(O)/C=C/c2ccc(OC(=O)[C@H](Cc3ccccc3)NC(=O)C(Cl)Cl)c(OC)c2)ccc1OC(=O)[C@H](Cc1ccccc1)NC(=O)C(Cl)Cl [CMC 5]
EC50 ([1]; 72 h): 838 nM
EC50 [2]: 1240 nM

Structure (SMILES): COc1cc(/C=C/C(=O)/C=C(O)/C=C/c2ccc(OC(=O)CNC(=O)C(Cl)Cl)c(OC)c2)ccc1OC(=O)CNC(=O)C(Cl)Cl [CMC 2]
contraindication / side effects [3]: no contraindication
mouse growth (body weight) [3]: normal
EC50 ([1]; 72 h): 778 nM
EC50 [2]: 1420 nM
tumor growth (tumor volume) [4]: significantly reduced
tumor size [4]: significantly reduced
tumor weight [4]: significantly reduced
